From publication PMC7555119, “Characterization of Novel Synthetic Polyphenols: Validation of Antioxidant and Vasculoprotective Activities” (Antioxidants, 2020)
In brackets after ≈: the same amount, converted by molar mass. Read-outs that look alike come from different tables or passages of the source.

How the values were obtained:
[1] = system: human dermal fibroblasts (HDF); experiment: Cell viability, AlamarBlue assay; format: cell-based; settings: 24 h, AlamarBlue, non-linear fit
Procedure: Cytotoxicity of selected antioxidant compounds was assessed using human dermal fibroblasts (HDF, Innoprot, P10856) and an AlamarBlue assay. Human fibroblasts were grown and maintained using Dulbecco’s Modified Eagle Medium high glucose (DMEM, Sigma Aldrich, D6171), supplemented with 10% Fetal Bovine Serum (FBS), 2% L-glutamine and 1% penicillin/streptomycin. Cells were incubated at 37 °C, 95% relative humidity and 5% CO2. Additionally, DMEM-high glucose, HEPES, no phenol red (Gibco, 2106329) was used to prepare the AlamarBlue solution. Stock solutions of the antioxidant compounds 3, 8, 15 and 17 were prepared in dimethyl sulfoxide (DMSO). Compound 7 was not soluble enough in DMSO to obtain a cell viability IC50 value. Serial dilutions of the antioxidant compounds were prepared using the previously mentioned stock solutions and DMEM. Final DMSO concentration was maintained lower than 1% v/v in the cell culture experiments. HDF were seeded at 9 × 10^4 cells/well in a 96-well plate and incubated for 24 h. The medium was replaced by the corresponding antioxidant solutions and incubated for an additional 24 h. Then, compounds were removed, cells were washed with Dulbecco’s Phosphate Buffered Saline (PBS, Sigma Aldrich) and treated with a 10% v/v AlamarBlue (Invitrogen) solution prepared in DMEM without phenol red. After 3 h of incubation, absorbance was monitored at 570 nm by a Multi-Detection Microplate Reader Synergy HT. Cells treated with DMEM without any antioxidant compound were used as the 100% viability control. Eight replicates were used for each antioxidant solution. IC50 values were obtained by a non-linear fit using the software GraphPad Prism 7.

[2] = Oxygen radical absorbance capacity (ORAC) assay
[3] = Aqueous thermodynamic solubility in H2O (UV); format: physicochemical; settings: water, thermodynamic from solid
Excerpt: 4) Log P and aqueous solubility of selected compounds.
Table S2. Theoretical Log P values and aqueous thermodynamic solubility measured for
Comp `Chemical Structure MW LogP Calc Aqueous Solubility a
a Thermodynamic solubility in H 2O (UV). […]

[4] = system: NADPH oxidase activity in segments of aorta from C57BL6/J mice; experiment: NADPH oxidase activity in aortic segments stimulated ex vivo with IL-1β; settings: IL-1β 10 ng/mL 6 h
Procedure: Aortic segments from three-month-old C57BL6/J mice were incubated with IL-1β (10 ng/mL, 6 h, Sigma Aldrich) in the presence and in the absence of the different compounds that were added 30 min before stimulation.
The O2 production generated by NADPH oxidase was determined by a chemiluminescence assay. Briefly, endothelial cells or aortic segments were homogenized in phosphate buffer (50 mmol/L KH2PO4, 1 mmol/L EGTA, 150 mmol/L sucrose, pH 7.4). The reaction was started by the addition of a lucigenin (5 μmol/L) and NADPH (100 μmol/L; Sigma-Aldrich) mixture to the protein sample in a final volume of 250 μL. Chemiluminescence was determined every 2.4 s for 3 min in a microtiter plate luminometer (Enspire Perkin Elmer). Basal activity in the absence of NADPH was subtracted from each reading and normalized to protein concentration. Data were normalized vs. control situation.

[5] = ABTS radical cation scavenging assay
Procedure: The 2,2′-azino-bis (3-ethylbenzothiazoline-6-sulfonic acid) diammonium salt (ABTS) assay was performed according to Re et al. and modified by Oki et al. for its use in microplates. Samples were diluted in methanol. An ABTS^•+ stock solution was prepared by adding 44 μL of potassium persulfate (140 mmol/L) to a 2.5 mL ABTS^•+ aqueous solution (7 mmol/L). The working solution of the radical ABTS^+ was prepared by diluting the stock solution 1:75 (v/v) in a sodium phosphate buffer (5 mmol/L, pH 7.4) to obtain an absorbance value of 0.7±0.02 at 734 nm. Samples (30 μL) were added to 270 μL of the working solution of ABTS^•+ in a microplate. Absorbance was measured at 734 nm and 30 °C for 20 min, every 5 min in a Synergy HT plate spectrophotometer (Biotek Instruments, Winoosky, VT, USA). A calibration curve was made with Trolox (20–250 μM). All samples were analyzed in triplicate. Results were expressed in μmol TE/μmol of pure compound, as for the ORAC assays.

[6] = Stability in aqueous media (H2O/acetonitrile 80:20, HPLC-MS); format: physicochemical

## O=C(Nc1ccc(O)cc1)N(c1ccc(O)cc1)c1ccc(O)cc1 [Compound 17, N,N-bis(4-Hydroxyphenyl)-N′-(4′-hydroxyphenyl)urea]
[1]
  IC50: > 1400 µM
[1]; Homo sapiens, Fibroblast
  IC50: 1790 µM
other
  melting point: 186 to 187 °C (dec.)
[2]
  ORAC: 19.4 ± 0.7 µmol of trolox/µmol of pure compound
[2]; TE: Trolox Equivalents
  ORAC: > 19 TE
[3]
  solubility: 620 ± 10 µg/mL (≈ 1840 µM)
[4]
  effect on NADPH oxidase activity induced by IL-1β: significant inhibition of the IL-1β effects
[5]
  ABTS: 3.57 ± 0.00 µmol of trolox/µmol of pure compound
[6]; H2O/acetonitrile (80:20%), room temperature, checked for 60 days
  stability in aqueous media: sufficiently stable
[6]; remaining pure compound (HPLC) after two months at room temperature in aqueous solution (+20% acetonitrile)
  Aqueous Stability (%): 93%
